Results as given in patent EP0401963A1, “Phosphonopeptides with collagenase inhibiting activity” (Beecham Group p.l.c., priority 1989, dated 1990).

Target: human lung fibroblast collagenase
Experiment: Collagenase inhibitor assay (human lung fibroblast collagenase, 14C-acetylated Type I collagen fibril degradation)
Assay type: biochemical
Conditions: Inhibition of human lung fibroblast collagenase (purified from WI-38 culture supernatants); 14C-acetylated rat skin Type I collagen substrate; 37°C overnight; read-out: IC₅₀
Description: The assay tubes are incubated at 37 °C overnight.

SMILES | IC50 [nM]
CC[C@@H](N[C@@H](CC(C)C)C(=O)NC1CCCCCCCCCCNC1=O)P(=O)(O)O (single isomer, unassigned) [Example E3C] | 45
CC[C@H](N[C@@H](CC(C)C)C(=O)NC1CCCCCCCCCCNC1=O)P(=O)(O)O (single isomer, unassigned) [Example E4] | 166
CCCCC(N[C@@H](CC(C)C)C(=O)NC1CCCCCCCCCCNC1=O)P(=O)(O)O (stereo partly drawn) [Example E8, 3-[N-[N-(1-Phosphonopentyl)-(S)-leucyl]]-(-)-aminoazacyclotridecan-2-one] | 9490
